The results in this text go back to PMC6158189, “A pharmacological probe identifies cystathionine β-synthase as a new negative regulator for ferroptosis” (Cell Death & Disease, 2018).

One series has as its system HEK293T cells. Put plainly: total Hcys in HEK293T cells (ELISA). It is filed as cell-based. Conditions: 5 or 10 μM, 12 h. The method, then:
Fig. 3 The effect of CH004 on the activity of endogenous hCBS in cells. a CH004 dose-dependently elevates the levels of Hcys in HepG2 and HEK293T cells. HepG2 cells or HEK293T cells were incubated with indicated CH004 or DMSO (control) for 12 h. The amount of total Hcys in cells was measured by ELISA using Axis® Homocysteine EIA kit (IBL, AX51301) (“Materials and Methods” section). […] HepG2 cells were treated with indicated DMSO, CH004 or HA for 8 h before the staining with AzMC probe. The amount of the H2S (blue) was quantified and is shown in (c). Bars, 50 μm. Control (CTR), DMSO group (100%). A representative fluorescence image from three independent experiments is shown. Means ± SDS (n = 3). d CH004 elevates Hcys in the peripheral blood of rats. The total Hcys of the blood samples collected from the anesthetized rats at the 75 min time point (Materials and Methods) were quantified by ELISA (see above). Means ± SDS (n = 6).
HepG2 or HEK293T cells were seeded in poly-D-Lys-coated 6-well plates at a density of ∼ 5 × 10^5 cells per well for one day, treated with DMSO or various concentrations of compounds for another 12 h before the collection by scraping or trypsinization. […]

The target of series [1] is T1, hCBS (GST-tagged CBS-413) (Homo sapiens, UniProt P35520).
T1 construct: hCBS-413 (a C-terminal truncated hCBS 1–413); made in house; host or cells: E. coli BL21
T1 sequence (P35520 1-413): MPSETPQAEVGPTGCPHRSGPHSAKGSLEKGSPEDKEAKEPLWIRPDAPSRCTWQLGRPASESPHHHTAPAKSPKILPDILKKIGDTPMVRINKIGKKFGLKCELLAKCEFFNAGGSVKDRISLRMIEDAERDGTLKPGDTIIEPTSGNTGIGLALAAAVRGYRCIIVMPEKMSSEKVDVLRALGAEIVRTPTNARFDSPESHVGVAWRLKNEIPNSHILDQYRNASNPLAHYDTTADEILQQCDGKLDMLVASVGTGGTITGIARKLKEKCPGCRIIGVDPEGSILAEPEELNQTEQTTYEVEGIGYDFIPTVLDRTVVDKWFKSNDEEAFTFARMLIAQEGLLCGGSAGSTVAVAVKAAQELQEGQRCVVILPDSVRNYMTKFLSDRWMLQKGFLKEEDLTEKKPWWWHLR
Put plainly: surface plasmon resonance (BIAcore T200). Format: binding. Conditions: 0.097–12.5 µM injected over hCBS-coated chip; read-out: KD (SPR). The protocol:
Surface Plasmon Resonance assays (SPR) with a BIAcore T200 (GE Healthcare, Uppsala, Sweden) were used to observe the direct interaction between inhibitors and hCBS. The SPR assay was performed in running buffer (1× PBS with 0.05% P20) and the purified GST-tagged CBS-413 (500 μg/mL) was immobilized onto a flow cell of a CM5 sensor chip using a GST antibody coupling kit in running buffer. The KD values were determined with the Biacore evaluation 3.1 software.
Figure S2. The mode of action of CH004 in inhibiting hCBS. […] After incubation with DMSO or CH004 at 10 μM for 40 min, hCBS (20 μM) was diluted 200-fold and the activity was measured according to the standard assay protocol (Materials and Methods). The data are presented as percentages of control (CTR; DMSO, 100%) and shown as means ± SDs (n = 5). The effects of 0.05 and 10 μM CH004 on hCBS (100 nM) without pre-incubation were defined as positive control (PC) and negative control (NC), respectively. (B) Inhibition of hCBS by CH004 as a function of PLP concentration with Cys (20 mM) together with Hcys (10 mM) as substrates (non-competitive inhibition constant αKi=15.2 ± 4.9 μM). […] The αKi or αKi’ values were calculated by using the non-linear fitting method for enzyme kinetics in GraphPad Prism 5. […] Dissociation constants for CH004 (KD) were calculated by using Biacore evaluation software (Materials and Methods).

Series [2] concerns HepG2, HEK293T, Huh7, H22, Panc-28, HCT116 and MDA-MB-231 cells. Briefly: cell proliferation, all tested cell lines. It is filed as cell-based. Conditions: 24 h; read-out: IC50 range, proliferation of all tested cells. The method, then:
With a bioactive and selective inhibitor of CBS in hand, we examined the effect of CH004 on the proliferation of HepG2 and HEK293T cells as well as hepatocellular carcinoma Huh7 and H22, pancreatic cancer Panc-28, colon cancer HCT116 and breast cancer MDA-MB-231 cells. […] HCT116 was the most affected cell line with an IC50 of 4 μM amongst tested cell lines (Fig. 4a and Supplementary Figure 11). […] To confirm that CH004-mediated inhibitory effects are due to the specific inhibition of hCBS, we generated hCBS-overexpressed (293T-CBS WT) stable cell lines by transducing HEK293T cells with lentivirus carrying hCBS WT genes. […] In supporting the pros of CBS on the proliferation, knock-down of CBS indeed substantially retards cell proliferation in HEK293T cells (Supplementary Figure 12c, d). […] Importantly, CH004 could largely retard the colony formation of HepG2 cells with an IC50 of ~8 μM (Supplementary Figure 12e–g).
To measure cell viability and cytotoxicity, HepG2, HEK293T, Huh-7, H22, Panc-28, HCT116 and MDA-MB-231 cells were seeded at a density of ~ 2 × 10^4 cells per well in 96-well plates (Coring, NY, USA) for one day, followed by incubation with DMSO or various concentrations of tested compound for indicated times. […]

A short description of series [3]: viable cells (Annexin V-PI double negative) with CH004 and ferroptosis inhibitors, flow cytometry. Particulars: human. On the technique in general: In flow cytometry, cells or beads pass a laser one at a time.

Each structure is given as a SMILES string.

As a reminder, the Kd is the constant that tells how readily two partners part at equilibrium. Usually viability stands for a read-out of living cells in per cent, often relative to untreated cells. Lower therefore signals more harm to the cells. On to `Cn1nc(Cc2ccccc2)nc2c(=O)n(C)c(=O)nc1-2` [CH004, 3-benzyl-1,6-dimethylpyrimido[5,4-e][1,2,4]triazine-5,7(1H,6H)-dione], for which the “increase of Hcys” value in the series on HEK293T cells was ~ 2 fold. Besides, the Kd in series [1] was 600 ± 300 nM. For the same compound, the IC50 in series [2] fell in the range of 4000 to 25000 nM. This compound also yielded a viability at 24 h, 15 μM in series [3] of 30.8%.
